What all share (assay): NCI anticancer screen, dose series, 48 h
Assay [1] has as its system OVCAR-5 ovarian.
Assay [2] concerns SW-620 colon.
For assay [3], the system named is T-47D breast.
Assay [4] deals with RPMI-8226 leukemia.
The subject of assay [5] is SF-539 CNS.
Assay [6] concerns NCI/ADR-RES ovarian.
For assay [7], the system named is DU-145 prostate.
For assay [8], the system named is HOP-62 NSCLC.
In assay [9] the test system is SK-MEL-2 melanoma.
For assay [10], the system named is HT29 colon.

SMILES strings stand for the structures.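 Results reflect a 48-hour exposure of cells in 96-well plates to compound at five concentrations. The concentration for 50% growth inhibition is given as GI50. TGI marks complete inhibition of growth.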 Where only a bound is given, the exact number is not on record here.

With `O=[N+]([O-])c1ccc(Br)c([N+](=O)[O-])c1`, the GI50 was 1.77 µM in assay [1]; 1.83 µM in assay [2]; 2.13 µM in assay [3]; 2.36 µM in assay [4]; 2.06 µM in [5]; 2.39 µM in assay [6]. The values for the GI50 in assay [7], in assay [8] and in assay [9] were 1.72 µM, 1.78 µM and 3.23 µM, respectively. In addition, the TGI in assay [1] came out at 3.5 µM; in assay [2], 4.13 µM; in assay [3], 4.94 µM; in assay [4], 5.51 µM; in assay [5] it was 5.01 µM; in assay [6], 5.69 µM. The TGI amounted to 3.12 µM in [7], 3.24 µM in assay [8] and 10.3 µM in assay [9].

In the case of `COc1ccc(CCN2C(=O)C=CC2=O)cc1OC`, the TGI in assay [1] is 35.6 µM; in assay [2], 5.65 µM; in [3] it was 31.9 µM; in assay [4] it was 3.18 µM; in [5] it was 31.3 µM; in assay [6] it was 74.5 µM. The TGI was found to be 31 µM in assay [7], 53.8 µM in assay [8], 13.7 µM in assay [10] and 14.8 µM in assay [9].

For the molecule `O=C(Nc1ccccc1O)c1cccc(NC2=C(Cl)C(=O)N(Cc3ccccc3)C2=O)c1`, the GI50 is 13.4 µM in assay [1]; 2.12 µM in assay [2]; 8.06 µM in assay [3]; 0.778 µM in assay [4]; 10.7 µM in assay [5]; 3.35 µM in [6]. Further, the GI50 in assay [7] is 7.07 µM; in assay [8], 7.98 µM; in assay [10], 7.05 µM; in [9] it was 6.07 µM. Also, the TGI in assay [1] worked out at 27.7 µM; in assay [2], 5.06 µM; in [3], 28.6 µM; in assay [4] it was 3.4 µM; in assay [5], 25.4 µM; in [6] it was 11.8 µM. Moreover, the TGI in assay [7] is 20.6 µM; in assay [8], 20.6 µM; in assay [10], more than 100 µM; in [9], 24.1 µM.

Take `C[n+]1c(/C=C\c2ccc(Cl)cc2)ccc2ccccc21`: the GI50 in assay [1] is 4.36 µM; in assay [2], 4.1 µM; in assay [3] it was 21.8 µM; in assay [4], 14.4 µM; in assay [5] it was 15.9 µM; in assay [6], more than 100 µM. Further, the GI50 was 89.8 µM in assay [7], 29.2 µM in assay [8], 19.4 µM in assay [10] and 21 µM in assay [9]. Besides, the TGI in assay [1] was more than 100 µM; in assay [2], 63.4 µM; in assay [3], more than 100 µM; in assay [4] it was more than 100 µM; in assay [5], 92.2 µM; in [6], more than 100 µM. Moreover, the TGI in [7] is more than 100 µM; in assay [8], more than 100 µM; in assay [10], more than 100 µM; in [9], 50.3 µM.

Take `CCOc1cccc(/C=N/NC(=O)c2ccc(Nc3ccnc(C(F)(F)F)c3)cc2)c1O`: the GI50 in assay [1] is 7.18 µM; in assay [2], 2.01 µM; in assay [3], 0.984 µM; in assay [4] it was 0.359 µM; in [5] it was 1.1 µM; in assay [6], 3.62 µM. The GI50 in [7] is 2.46 µM; in assay [8], 2.23 µM; in [10] it was 4.38 µM; in assay [9] it was 3.13 µM. Besides, the TGI was more than 100 µM in assay [1]; more than 100 µM in assay [2]; 19.4 µM in assay [3]; 20.6 µM in assay [4]; 11.6 µM in [5]; more than 63.2 µM in [6]. The TGI was more than 100 µM in assay [7], more than 78.5 µM in [8], more than 73.5 µM in assay [10] and more than 45.4 µM in assay [9].

`O=C(CN1CCN(c2ncnc3ccccc23)CC1)Nc1ccc(Cl)cc1C(=O)c1ccccc1Cl`: the GI50 in assay [1] was 2.92 µM; in assay [2] it was 0.662 µM; in assay [3], 0.339 µM; in assay [4], 0.561 µM; in assay [5], 0.383 µM; in assay [6], 3.12 µM. Further, the GI50 in assay [7] is 0.368 µM; in assay [8] it was 0.626 µM; in assay [10], 0.394 µM; in [9], 0.723 µM. The TGI in [1] was more than 42.2 µM; in assay [2], 7.54 µM; in assay [3], 3.25 µM; in [4], more than 22.2 µM; in [5], 1.3 µM; in assay [6], 16.3 µM. Further, the TGI stood at 12 µM in assay [7], 6.07 µM in assay [8], 9.4 µM in assay [10] and 2.67 µM in assay [9].

Turning to `CN(C)c1ccc(N2Cc3ccccc3OC3=C2C(=O)c2c(O)ccc(O)c2C3=O)cn1`, the GI50 in assay [1] was 0.51 µM; in assay [2] it was 0.178 µM; in assay [3], 0.258 µM; in assay [4], 0.235 µM; in assay [5], 0.225 µM; in [6], 0.284 µM. Besides, the GI50 is 0.223 µM in assay [7], 1.56 µM in assay [8], 0.232 µM in [10] and 0.541 µM in [9]. In addition, the TGI in assay [1] came out at 1.56 µM; in assay [2], 0.586 µM; in assay [3] it was 1.27 µM; in [4] it was 0.797 µM; in [5], 0.602 µM; in [7] it was 0.51 µM. Moreover, the TGI in [8] is 3.86 µM; in [10], 0.578 µM; in assay [9], 1.49 µM.

As to `N#C/C(=C\c1ccc(-c2ccc(Cl)cc2)o1)C(=O)Nc1ncc(Cc2ccc(Cl)cc2)s1`, the GI50 in [1] is 3.73 µM; in assay [3] it was 1.91 µM; in assay [4], 4.45 µM; in assay [5] it was 1.66 µM; in assay [6], 1.87 µM; in assay [7], 2.53 µM. Also, the GI50 in assay [8] was 2.26 µM; in assay [10], 3.42 µM; in assay [9], 3.26 µM. Further, the TGI is more than 100 µM in [1]; 5.2 µM in [3]; more than 100 µM in assay [4]; 3.84 µM in assay [5]; 6.31 µM in assay [6]; 13.5 µM in assay [7]. Also, the TGI in assay [8] is 6.33 µM; in assay [10], more than 100 µM; in assay [9] it was 12.9 µM.
